2 compounds from patent US9206194B2, “Halichondrin B analogs” (Eisai R&D Management Co., Ltd., priority 2008, dated 2015) can be followed below.

Test [1] relates to MES-SA/Dx5-Rx1 uterine sarcoma cells (expresses P-Glycoprotein at high levels). Nature of the test: Cell growth inhibition assay (methylene blue-based microculture), Dx5-Rx1. The arrangement: species or system human. Particulars: Dx5-Rx1, doxorubicin-selected P-glycoprotein expressing subline; 4 days incubation; compound in the crystalline form described. The procedure: (§1) The anti-cancer activity of the compounds described above, in the crystalline forms described, was determined using cell growth inhibition assays as described in Liu, J. et al. Anticancer Research, 27:1509-1511 (2007). The activity data in terms of IC50 nM is described below in Table 9. MES-SA and MES-SA/Dx5-Rx1 uterine sarcoma, were obtained from the American Type Culture Collection and grown in the recommended conditions.
(§2) Cell Growth Inhibition Assays. Cells were seeded at 7.5×10^3 cells/well in 96-well plates in the recommended medium supplemented with 10% FBS and penicillin, streptomycin and L-glutamine. […] The cell growth was determined using modifications (see Finlay G. J., et al. “A semiautomated microculture method for investigating growth inhibitory effects of cytotoxic compounds on exponentially growing carcinoma cells.” Anal Biochem 139: 272-277, 1984) of a methylene blue-based microculture assay (See Towle M. J., et al. “In vitro and in vivo anticancer activities of synthetic macrocyclic ketone analogues of halichondrin B.” Cancer Res 61: 1013-1021, 2001). […] The plates were read at A600-A405.
(§3) Susceptibility of Compound to P-Glycoprotein-Mediated Multidrug Resistance (MDR). […] Both cell lines were seeded at 7.5×10^3 cells/well in McCoy's 5A supplemented with 10% FBS and penicillin, streptomycin and L-glutamine and cell growth was measured as above. […]

Test [2] has as its system MES-SA uterine sarcoma cells. Nature of the test: Cell growth inhibition assay (methylene blue-based microculture), MES-SA. The arrangement: species or system human. Particulars: MDR negative parental cell line, 4 days incubation, compound in the crystalline form described. The procedure:
as §1, §2, §3

The test system of test [3] is P-Glycoprotein-mediated MDR, Dx5-Rx1 versus MES-SA cells. Kind of test: Susceptibility of compound to P-glycoprotein-mediated multidrug resistance (fold resistance). The class given is cell-based, human. As to conditions: fold resistance: ratio of the IC50 values in resistant and parental cell lines. The procedure: Susceptibility of Compound to P-Glycoprotein-Mediated Multidrug Resistance (MDR). A pair of human uterine sarcoma cell lines was used: MES-SA, the MDR negative parental cell line, and Dx5-Rx1, a cell line derived from MES-SA after long term of exposure to doxorubicin. This subline expresses P-Glycoprotein at high levels. Both cell lines were seeded at 7.5×10^3 cells/well in McCoy's 5A supplemented with 10% FBS and penicillin, streptomycin and L-glutamine and cell growth was measured as above. The ratio of the IC50 values obtained in the parental and resistant cell lines was termed fold resistance and provided an indication of compound susceptibility to P-glycoprotein-mediated MDR against the two cell lines were compared with each other.

Molecules are shown by their SMILES.

Regarding `C=C1C[C@@H]2CC[C@@]34C[C@H]5O[C@H]6[C@@H](O3)[C@H]3O[C@H](CC[C@@H]3O[C@H]6[C@H]5O4)CC(=O)C[C@@H]3[C@@H](OC)[C@@H](C[C@H](O)CO)O[C@H]3C[C@H]3O[C@@H](CC[C@@H]1O2)C[C@@H](C)C3=C` [ER-076349 monohydrate], the values for the half-inhibitory concentration (IC50) in test [1] and in test [2] were 6.5 nM and 0.03 nM, respectively. In addition, in test [3], the “Ratio of DxR-Rx1/MES-SA” value came out at 217.
Turning to `C=C1C[C@@H]2CC[C@@]34C[C@H]5O[C@H]6[C@@H](O3)[C@H]3O[C@H](CC[C@@H]3O[C@H]6[C@H]5O4)CC(=O)C[C@@H]3[C@@H](OC)[C@@H](C[C@H](O)CN)O[C@H]3C[C@H]3O[C@H](CC[C@@H]1O2)C[C@@H](C)C3=C` [ER-820057 (epi-C23 amine)], the IC50 (commonly the concentration at which inhibition is half-maximal) was found to be 1000 nM in test [1] and 3.3 nM in test [2]. The “Ratio of DxR-Rx1/MES-SA” value in test [3] turned out to be 303.
